This experiment has as its target T1, human ICE (Homo sapiens, UniProt P29466).
T1 sequence (P29466 120-297 limits assumed): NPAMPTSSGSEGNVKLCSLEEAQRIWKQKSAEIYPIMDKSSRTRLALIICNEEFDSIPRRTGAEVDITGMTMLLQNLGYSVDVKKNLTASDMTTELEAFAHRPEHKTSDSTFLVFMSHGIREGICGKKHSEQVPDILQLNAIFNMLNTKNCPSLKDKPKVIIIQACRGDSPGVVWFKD
T1 sequence (P29466 317-404 limits assumed): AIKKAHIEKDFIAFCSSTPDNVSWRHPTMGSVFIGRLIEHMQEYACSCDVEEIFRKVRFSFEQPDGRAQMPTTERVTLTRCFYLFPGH
As to the kind of experiment: Assay for IL-1β converting enzyme. It is filed as biochemical. As to conditions: human ICE solution, substrate Ac-Tyr-Val-Ala-Asp-MCA, 37° C., fluorescence. How it is done: (1) Assay for IL-1β converting enzyme
The reaction mixture contains, for example, 20 mM of HEPES-NaOH pH7.4, 10 mM of KOH, 1.5 mM of MgCl2, 0.1 mM of EDTA and 10% glycerol. Various concentrations of test compounds (50 μl), human ICE solution (50 μl) and various concentrations of substrate (Ac-Tyr-VaI-Ala-Asp-MCA) were mixed and incubated at 37° C. Fluorescence intensity was measured at […].
In the aboved example method,
HEPES is 4-(2-Hydroxyethyl)-1-piperazineethane-sulfonic acid,
EDTA is Ethylenediamine tetraacetate, and
Ac-Tyr-Val-Ala-Asp-MCA is Acetyl-L-tyrosyl-L-valyl-L-alanyl-L-asparaginic acid 4-methyl-coumarinyl-7-amide.

Structures are written as SMILES.

`CC(C)[C@H](NC(=O)CCc1ccccc1)C(=O)N[C@@H](C)C(=O)NC(CC(=O)O)C(=O)Cn1nnc(-c2c(Cl)cccc2Cl)n1` (stereo partly drawn) [Example 2(1), N-((N-(3-phenylpropionyl)-L-valyl)-L-alanyl)-3-amino-4-oxo-5-(5-(2,6-dichlorophenyl)tetrazol-2-yl)pentanoic acid] gave a half-maximal inhibitory concentration (IC50) of 30 nM.

The values are drawn from US5710153A, “Tetrazole compound” (Ono Phramaceutical Co., Ltd., priority 1995, dated 1998).
